The compounds below were run against T1, human GluN1/GluN2B NMDA receptors (Homo sapiens, UniProt Q05586+Q13224) (assay: Calcium flux (FLIPR) assay on cloned human NR1/GluN2B ion channels expressed in mammalian cells, standard assay). Settings: glutamate ~EC40 and 10 μM glycine, stable cell line with Tet-On induced expression.
T1 construct: expressed in transfected cells
Type: cell-based
Procedure: Effects of Test Articles on Cloned Human NR1/GluN2B Ion Channels Expressed in Mammalian Cells
NMDA receptors are ion channels that are highly permeable to Ca^2+ ions, rendering it possible to monitor NMDA receptor function using cell-based calcium flux assay. In this assay, co-agonists glutamate and glycine are added to cells heterologously expressing human GluN1/GluN2B NMDA receptors to initiate cellular Ca^2+ influx. The time course of the changes in intracellular calcium is measured using a fluorescent dye and a FLIPR (Fluorometric Imaging Plate Reader) device.
Twenty four hours before measurements, the expression of the NMDA receptors in the stable cell line is induced with Tet-On inducible system in the presence of a non-selective NMDA receptor blocker. On the day of the experiment, cell culture media is carefully washed and the cells are loaded with Calcium 5 Dye Kit (Molecular Devices) in dye loading buffer containing 137 mM NaCl, 4 mM KCl, 2 mM CaCl2, 0.5 mM MgCl2 (standard assay) or 1.5 mM MgCl2 (HTS assay), 10 mM HEPES and 5 mM D-glucose; pH 7.4. After 1 h incubation at the room temperature, the dye is washed away with the assay buffer (137 mM NaCl (standard assay) or 150 mM (HTS assay), 4 mM KCl (standard assay) or 3 mM (HTS assay), 2 mM CaC2, 0.01 mM EDTA, 10 mM HEPES and 5 mM D-glucose; pH 7.4) In the FLIPR TETRA reader, various concentrations of the test compounds are added to the cells for 5 min while fluorescence is monitored to detect potential agonist activity. Next, co-agonists, glutamate and glycine are added for another 5 minutes. The concentration of glutamate corresponding to ˜EC40 (standard assay) or EC40 (HTS assay) is used to maximize the assay's signal window and ability to detect NMDA receptor antagonists and negative allosteric modulators. A saturating concentration (10 μM) of glycine is also present in the assay. A non-selective NMDA receptor antagonist, (+)MK-801 is used as a positive control for antagonist activity. The fluorescent signal in the presence of test compounds is quantified and normalized to the signal defined by the appropriate control wells.

T1 sequence (Q13224 27-1484, other chains not shown): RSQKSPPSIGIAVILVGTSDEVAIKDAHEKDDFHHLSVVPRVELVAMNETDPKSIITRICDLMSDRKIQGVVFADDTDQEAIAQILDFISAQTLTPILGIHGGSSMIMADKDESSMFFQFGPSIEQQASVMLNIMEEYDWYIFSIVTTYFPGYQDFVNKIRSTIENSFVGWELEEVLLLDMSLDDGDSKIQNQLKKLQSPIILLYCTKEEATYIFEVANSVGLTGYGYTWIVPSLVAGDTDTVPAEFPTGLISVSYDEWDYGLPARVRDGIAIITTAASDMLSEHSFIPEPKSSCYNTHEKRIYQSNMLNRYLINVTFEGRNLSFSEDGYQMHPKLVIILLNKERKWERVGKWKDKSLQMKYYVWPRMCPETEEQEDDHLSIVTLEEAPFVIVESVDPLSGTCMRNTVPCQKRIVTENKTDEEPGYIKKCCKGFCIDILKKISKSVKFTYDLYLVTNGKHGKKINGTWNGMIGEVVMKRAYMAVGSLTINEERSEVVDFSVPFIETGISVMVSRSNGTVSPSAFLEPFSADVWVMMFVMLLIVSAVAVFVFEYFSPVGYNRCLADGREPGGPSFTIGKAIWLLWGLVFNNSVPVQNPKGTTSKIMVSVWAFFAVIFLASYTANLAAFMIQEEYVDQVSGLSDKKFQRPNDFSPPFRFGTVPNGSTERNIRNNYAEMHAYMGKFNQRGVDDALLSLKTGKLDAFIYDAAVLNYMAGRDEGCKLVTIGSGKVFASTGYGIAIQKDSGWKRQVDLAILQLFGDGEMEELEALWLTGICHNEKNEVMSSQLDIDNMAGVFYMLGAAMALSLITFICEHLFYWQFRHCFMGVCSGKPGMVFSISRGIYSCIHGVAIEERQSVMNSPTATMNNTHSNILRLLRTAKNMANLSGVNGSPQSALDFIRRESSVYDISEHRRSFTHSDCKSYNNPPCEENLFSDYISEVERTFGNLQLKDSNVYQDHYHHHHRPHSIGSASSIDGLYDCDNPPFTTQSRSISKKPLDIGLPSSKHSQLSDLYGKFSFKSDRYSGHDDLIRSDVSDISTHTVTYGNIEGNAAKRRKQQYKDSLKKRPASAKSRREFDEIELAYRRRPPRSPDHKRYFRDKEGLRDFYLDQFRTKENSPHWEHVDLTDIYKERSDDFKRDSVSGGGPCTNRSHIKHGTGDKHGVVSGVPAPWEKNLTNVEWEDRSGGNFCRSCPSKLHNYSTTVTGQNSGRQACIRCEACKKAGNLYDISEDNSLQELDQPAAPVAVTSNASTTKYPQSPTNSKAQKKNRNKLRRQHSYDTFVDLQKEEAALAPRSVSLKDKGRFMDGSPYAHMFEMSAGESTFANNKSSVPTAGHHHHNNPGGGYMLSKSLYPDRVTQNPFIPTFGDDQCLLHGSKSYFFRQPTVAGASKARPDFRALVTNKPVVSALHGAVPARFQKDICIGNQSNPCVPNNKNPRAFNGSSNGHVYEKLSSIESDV

IC50 | SMILES
69 nM | Fc1ccc(-c2cnc3cnn(CC(F)(F)C4CC4)c3c2)cc1OC(F)F [Example 109, 1-(2-Cyclopropyl-2,2-difluoro-ethyl)-6-[3-(difluoromethoxy)-4-fluoro-phenyl]pyrazolo[4,3-b]pyridine]
172 nM | CC(C)C(=O)Cn1ncc2ncc(-c3cccc(F)c3F)cc21 [Example 48, 1-[6-(2,3-Difluorophenyl)pyrazolo[4,3-b]pyridin-1-yl]-3-methyl-butan-2-one]
5250 nM | CON=C(Cn1ncc2ncc(-c3cccc(C(F)(F)F)c3)cc21)C(C)C (mixture of isomers) [Example 105, (E/Z)-N-Methoxy-3-methyl-1-[6-[3-(trifluoromethyl)phenyl]pyrazolo[4,3-b]pyridin-1-yl]butan-2-imine]
13 nM | O=C(Cn1ncc2ncc(-c3ccc(F)c(F)c3)cc21)C1CC1 [Example 65, 1-Cyclopropyl-2-[6-(3,4-difluorophenyl)pyrazolo[4,3-b]pyridin-1-yl]ethanone]
35 nM | CCC(=O)Cn1ncc2ncc(-c3cccc(C(C)(F)F)c3)cc21 [Example 31, 1-[6-[3-(1,1-Difluoroethyl)phenyl]pyrazolo[4,3-b]pyridin-1-yl]butan-2-one]
187 nM | O=C1NC[C@H](Cn2ncc3ncc(-c4ccc(F)c(C(F)F)c4)cc32)O1 [Example 22, (R)-5-[[6-[3-(Difluoromethyl)-4-fluoro-phenyl]pyrazolo[4,3-b]pyridin-1-yl]methyl]oxazolidin-2-one]
222 nM | Cc1cc(-c2cnc3cnn(CC(O)C(C)C)c3c2)ccc1F (racemic) [Example 8, (RS)-1-[6-(4-Fluoro-3-methyl-phenyl)pyrazolo[4,3-b]pyridin-1-yl]-3-methyl-butan-2-ol]
29 nM | CC[S+]([O-])Cn1ncc2ncc(-c3ccc(F)c(C(F)F)c3)cc21 (single isomer, unassigned) [Example 84, (S*)-6-(3-(Difluoromethyl)-4-fluorophenyl)-1-((ethylsulfinyl)methyl)-1H-pyrazolo[4,3-b]pyridine]
30 nM | O=C(Cn1ncc2ncc(-c3cc(F)c(F)c(F)c3)cc21)C1CC1 [Example 9, 1-Cyclopropyl-2-[6-(3,4,5-trifluorophenyl)pyrazolo[4,3-b]pyridin-1-yl]ethanone]
7 nM | O=C(Cn1ncc2ncc(-c3ccc(F)c(Cl)c3)cc21)C1CC1 [Example 68, 2-[6-[3-Chloro-4-fluoro-phenyl)pyrazolo[4,3-b]pyridin-1-yl]-1-cyclopropyl-ethanone]
415 nM | CCC(O)Cn1ncc2ncc(-c3ccc(Cl)c(OC(F)F)c3)cc21 (racemic) [Example 93, (RS)-1-[6-[4-Chloro-3-(difluoromethoxy)phenyl]pyrazolo[4,3-b]pyridin-1-yl]butan-2-ol]
28 nM | CCC(=O)Cn1ncc2ncc(-c3cccc(F)c3)cc21 [Example 29, 1-[6-(3-Fluorophenyl)pyrazolo[4,3-b]pyridin-1-yl]butan-2-one]
2060 nM | CC1(Cn2ncc3ncc(-c4ccc(F)c(C(F)F)c4)cc32)COC1 [Example 110, 6-[3-(Difluoromethyl)-4-fluoro-phenyl]-1-[(3-methyloxetan-3-yl)methyl]pyrazolo[4,3-b]pyridine]
19 nM | O=C(Cn1ncc2ncc(-c3cc(F)cc(F)c3)cc21)C1CC1 [Example 66, 1-Cyclopropyl-2-[6-(3,5-difluorophenyl)pyrazolo[4,3-b]pyridin-1-yl]ethanone]
36 nM | CC(=O)Cn1ncc2ncc(-c3ccc(Cl)c(OC(F)F)c3)cc21 [Example 26, 1-[6-[4-Chloro-3-(difluoromethoxy)phenyl]pyrazolo[4,3-b]pyridin-1-yl]propan-2-one]
290 nM | OC(Cn1ncc2ncc(-c3cccc(C(F)(F)F)c3)cc21)C1CC1 (racemic) [Example 100, (RS)-1-Cyclopropyl-2-[6-[3-(trifluoromethyl)phenyl]pyrazolo[4,3-b]pyridin-1-yl]ethanol]
125 nM | CN1CC[C@H](Cn2ncc3ncc(-c4ccc(F)c(C(F)F)c4)cc32)C1=O [Example 118, (R)-3-[[6-[3-(Difluoromethyl)-4-fluoro-phenyl]pyrazolo[4,3-b]pyridin-1-yl]methyl]-1-methyl-pyrrolidin-2-one]
893 nM | CC[S+]([O-])Cn1ncc2ncc(-c3ccc(F)c(F)c3)cc21 (racemic) [Example 82, (RS) 6-(3,4-Difluorophenyl)-1-(ethylsulfinylmethyl)pyrazolo[4,3-b]pyridine]

IC50 | SMILES
160 nM | O=C(Cn1ncc2ncc(-c3ccc(F)c(C(F)F)c3)cc21)c1ccc(F)cn1 [Example 15, 2-(6-(3-(Difluoromethyl)-4-fluorophenyl)-1H-pyrazolo[4,3-b]pyridin-1-yl)-1-(5-fluoropyridin-2-yl)ethan-1-one]
213 nM | CCC(F)(F)Cn1ncc2ncc(-c3ccc(F)c(OC(F)F)c3)cc21 [Example 99, 1-(2,2-Difluorobutyl)-6-[3-(difluoromethoxy)-4-fluoro-phenyl]pyrazolo[4,3-b]pyridine]
34 nM | CC[S+]([O-])Cn1ncc2ncc(-c3ccc(F)c(C(F)F)c3)cc21 (racemic) [Example 83, (RS)-6-(3-(Difluoromethyl)-4-fluorophenyl)-1-((ethylsulfinyl)methyl)-1H-pyrazolo[4,3-b]pyridine]
191 nM | O=C(Cn1ncc2ncc(-c3ccc(F)c(C(F)F)c3)cc21)c1ncccc1F [Example 140, 2-(6-(3-(Difluoromethyl)-4-fluorophenyl)-1H-pyrazolo[4,3-b]pyridin-1-yl)-1-(3-fluoropyridin-2-yl)ethan-1-one]
41 nM | CC(C)C(=O)Cn1ncc2ncc(-c3cc(F)c(F)c(F)c3)cc21 [Example 53, 3-Methyl-1-[6-(3,4,5-trifluorophenyl)pyrazolo[4,3-b]pyridin-1-yl]butan-2-one]
> 3000 nM | CN1C(=O)CCC1Cn1ncc2ncc(-c3ccc(F)c(C(F)F)c3)cc21 (racemic) [Example 115, (RS)-5-[[6-[3-(Difluoromethyl)-4-fluoro-phenyl]pyrazolo[4,3-b]pyridin-1-yl]methyl]-1-methyl-pyrrolidin-2-one]
> 3000 nM | O=C1O[C@H](Cn2ncc3ncc(-c4ccc(F)c(C(F)F)c4)cc32)CN1C1CC1 [Example 135, (S)-3-Cyclopropyl-5-[[6-[3-(difluoromethyl)-4-fluoro-phenyl]pyrazolo[4,3-b]pyridin-1-yl]methyl]oxazolidin-2-one]
1490 nM | ON=C(Cn1ncc2ncc(-c3cccc(C(F)(F)F)c3)cc21)C1CC1 (mixture of isomers) [Example 106, (E/Z)-1-Cyclopropyl-2-[6-[3-(trifluoromethyl)phenyl]pyrazolo[4,3-b]pyridin-1-yl]ethanone oxime]
148 nM | O=C(Cn1ncc2ncc(-c3ccccc3F)cc21)C1CC1 [Example 58, 1-Cyclopropyl-2-[6-(2-fluorophenyl)pyrazolo[4,3-b]pyridin-1-yl]ethanone]
90 nM | Cc1cc(F)ccc1-c1cnc2cnn(CC(=O)C(C)C)c2c1 [Example 52, 1-[6-(4-Fluoro-2-methyl-phenyl)pyrazolo[4,3-b]pyridin-1-yl]-3-methyl-butan-2-one]
1430 nM | CCN1C[C@@H](Cn2ncc3ncc(-c4ccc(F)c(C(F)F)c4)cc32)OC1=O [Example 132, (S)-5-[[6-[3-(Difluoromethyl)-4-fluoro-phenyl]pyrazolo[4,3-b]pyridin-1-yl]methyl]-3-ethyl-oxazolidin-2-one]
30 nM | CC(C)C(=O)Cn1ncc2ncc(-c3cccc(F)c3)cc21 [Example 46, 1-[6-(3-Fluorophenyl)pyrazolo[4,3-b]pyridin-1-yl]-3-methyl-butan-2-one]
205 nM | CC(C)C(=O)Cn1ncc2ncc(-c3ccc(F)c(F)c3F)cc21 [Example 54, 3-Methyl-1-[6-(2,3,4-trifluorophenyl)pyrazolo[4,3-b]pyridin-1-yl]butan-2-one]
498 nM | O=C1NCC(Cn2ncc3ncc(-c4ccc(F)c(OC(F)F)c4)cc32)O1 (racemic) [Example 125, (RS)-5-[[6-[3-(Difluoromethoxy)-4-fluoro-phenyl]pyrazolo[4,3-b]pyridin-1-yl]methyl]oxazolidin-2-one]
736 nM | CC[S+]([O-])Cn1ncc2ncc(-c3cc(F)c(F)c(F)c3)cc21 (racemic) [Example 88, (RS)-1-(Ethylsulfinylmethyl)-6-(3,4,5-trifluorophenyl)pyrazolo[4,3-b]pyridine]
89 nM | CC(C)C(=O)Cn1ncc2ncc(-c3ccccc3)cc21 [Example 44, 3-Methyl-1-(6-phenylpyrazolo[4,3-b]pyridin-1-yl)butan-2-one]
109 nM | Cc1cc(-c2cnc3cnn(C[C@H](O)C4CC4)c3c2)ccc1F [Example 102, (R)-1-Cyclopropyl-2-[6-(4-fluoro-3-methyl-phenyl)pyrazolo[4,3-b]pyridin-1-yl]ethanol]

Reference: patent publication US11161846B2, “Substituted pyrazolo[4,3-b]pyridines and their use as GluN2B receptor modulators” (JANSSEN PHARMACEUTICA NV, priority 2019, dated 2021)
